# Measurements from US20230172846A1, “ORAL DISSOLVABLE FILM AND METHOD OF MANUFACTURING AND USING THE SAME” (CURE PHARMACEUTICAL HOLDING CORP., priority 2019, published 2023).
# How the values were obtained:
# [1] = CBD film stability study (% assay of CBD); type: physicochemical
# pancreatic cancer = details: in vivo; cited from earlier work
# [2] = Vitamin D3 Oral Thin Film 4 weeks stability study (% assay); type: physicochemical; details: for % Assay of Vitamin D3: in oral thin film
# Description: Vitamin D3 is a highly sensitive Lipophilic active pharmaceutical ingredient (API). It was used as a model drug, formulated using above formulation and, Vitamin D3 Oral Thin Film tested for 4 weeks stability study.
smiles,measurement,setting,value
"C=C(C)[C@@H]1CCC(C)=C[C@H]1c1c(O)cc(CCCCC)cc1O [CBD, Cannabidiol]",% Assay of CBD,"[1]; 25 C./60% RH, T0 Week",108%
same,% Assay of CBD,"[1]; 25 C./60% RH, T1 Month",109%
same,% Assay of CBD,"[1]; 25 C./60% RH, T2 Months",113%
same,% Assay of CBD,"[1]; 25 C./60% RH, T 2 Weeks",109%
same,% Assay of CBD,"[1]; 25 C./60% RH, T3 Months",120%
same,% Assay of CBD,"[1]; 40 C./75% RH, T1 Month",106%
same,% Assay of CBD,"[1]; 40 C./75% RH, T2 Months",113%
same,% Assay of CBD,"[1]; 40 C./75% RH, T 2 Weeks",108%
same,% Assay of CBD,"[1]; 40 C./75% RH, T3 Months",118%
same,% Assay of CBD,"[1]; 40 C./75% RH, T9 Months",96%
same,Stability and protection of the API in the film formulation,[1]; T=3M stability,better stability
same,% Assay of CBD,"[1]; in film formulation, 25 C./60% RH, T1 Month",109%
same,% Assay of CBD,"[1]; in film formulation, 25 C./60% RH, T2 Months",113%
same,% Assay of CBD,"[1]; in film formulation, 25 C./60% RH, T 2 Weeks",109%
same,% Assay of CBD,"[1]; in film formulation, 25 C./60% RH, T3 Months",120%
same,% Assay of CBD,"[1]; in film formulation, 40 C./75% RH, T1 Month",106%
same,% Assay of CBD,"[1]; in film formulation, 40 C./75% RH, T2 Months",113%
same,% Assay of CBD,"[1]; in film formulation, 40 C./75% RH, T 2 Weeks",108%
same,% Assay of CBD,"[1]; in film formulation, 40 C./75% RH, T3 Months",118%
same,% Assay of CBD,"[1]; in film formulation, T0 Week",108%
COc1cc(-c2cc(=O)c3c(O)cc(O)c(CC=C(C)C)c3o2)ccc1O [FBL-03G],Survival rate of subjects suffering from pancreatic cancer,pancreatic cancer,increase survival rate
C=C1CC[C@H](O)C/C1=C/C=C1\CCC[C@]2(C)[C@@H]([C@H](C)CCCC(C)C)CC[C@@H]12 [Vitamin D3],Protection and stability of Vitamin D3 in OTF,"[2]; 4 weeks stability study, high heat and humidity",significant protection
same,% Assay of Vitamin D3,"[2]; 25 C./60% RH, T 1 Week",95%
same,% Assay of Vitamin D3,"[2]; 25 C./60% RH, T2 Weeks",100%
same,% Assay of Vitamin D3,"[2]; 25 C./60% RH, T3 Weeks",101%
same,% Assay of Vitamin D3,"[2]; 25 C./60% RH, T4 Weeks",101%
same,% Assay of Vitamin D3,"[2]; 40 C./75% RH, T 1 Week",98%
same,% Assay of Vitamin D3,"[2]; 40 C./75% RH, T2 Weeks",92%
same,% Assay of Vitamin D3,"[2]; 40 C./75% RH, T3 Weeks",91%
same,% Assay of Vitamin D3,"[2]; 40 C./75% RH, T4 Weeks",93%
same,% Assay of Vitamin D3,[2]; T0 Week,100%
